From paper PMC3494675, “Structure-Function Analysis of the Glioma Targeting NFL-TBS.40-63 Peptide Corresponding to the Tubulin-Binding Site on the Light Neurofilament Subunit” (PLoS ONE, 2012) come the findings set out here.

Peptide text beside a SMILES is read from it. * marks the point of attachment. Biotin = O=C1N[C@H]2[C@H](CS[C@H]2CCCCC(=O)*)N1

For assay [1], the system named is T98G human glioblastoma cells. The assay is described as follows: Disintegration of the microtubule network in T98G cells (anti-tubulin immunostaining, cell counting). The format is cell-based. Conditions: 6 hours; for Effect on MT network of T98G / glioma cells (in words): 10 µM, immunocytochemistry; for Disintegration of MT (% of cells): T98G cells, 10 µM biotinylated peptide, anti-tubulin immunostaining, minimum 200 cells per experiment, mean ± S.E.M., triplicated. The procedure:
(§1) Cells containing the biotinylated peptide were detected using Alexa-labeled avidin (green fluorescence) and those displaying a normal or a destroyed MT network were detected with an anti-tubulin antibody (red fluorescence) ( Figure 1A-B ). Then, we counted a minimum of 200 cells per slide containing or not the peptide, and with a normal or destroyed microtubule network ( Figure 1C ). As illustrated on Figure 1A glioblastoma cells contain a rich MT network. […] Cells were plated on cover slips and cultured in media containing biotinylated peptides (10 μM) for 6 hours. […] The cells were then incubated during 10 min in a 0.5% triton X-100 permeabilization solution, and washed 3 times in PBS. Next, they were incubated in a blocking solution (PBS 5% BSA) for 15 min, then incubated with mouse anti-ß-tubulin antibody (Sigma) 1/200 overnight. Tubulin and biotinylated peptides were localized using respectively Alexa 568 nm anti-mouse antibody and streptavidin Alexa 488 nm (Molecular Probes) 1/200 for 1 hour, followed by washing in PBS. […] Sigma) for 5 min, washed twice with PBS, then cover slips were mounted with an antifading solution. Observations were performed with an Olympus confocal microscope (BX50) using Fluoview.3.1. Software or a Leica DMI6000 inverted microscope and analyzed with Metamorph 7.1.7.0. software. We counted cells containing the peptide and cells displaying a destroyed MT network. Experiments were repeated at least three times, and a minimum of 200 cells was scored during each experiment.

The test system of assay [2] is T98G human glioblastoma cells. Description: Peptide incorporation into T98G cells (immunocytochemistry, cell counting). Conditions: 6 hours; for Cell penetration / internalization in T98G cells (in words): 10 µM, immunocytochemistry, compared to original NFL-TBS.40-63; for Peptide incorporation (% of cells): T98G cells, 10 µM biotinylated peptide, Alexa-labeled avidin/streptavidin fluorescence microscopy, minimum 200 cells per experiment, mean ± S.E.M., triplicated. Type of assay: cell-based. On the procedure: as §1

Consider `CC(C)C[C@H](NC(=O)[C@H](CO)NC(=O)[C@H](CO)NC(=O)[C@H](CO)NC(=O)[C@@H](NC(=O)[C@@H]1CCCN1C(=O)[C@H](C)NC(=O)[C@H](CO)NC(=O)[C@H](Cc1ccc(O)cc1)NC(=O)[C@H](CO)NC(=O)[C@H](CO)NC(=O)[C@H](Cc1ccc(O)cc1)NC(=O)CCCC[C@@H]1SC[C@@H]2NC(=O)N[C@@H]21)C(C)C)C(=O)N[C@@H](CO)C(=O)N[C@H](C(=O)N[C@@H](CCCNC(=N)N)C(=O)N[C@@H](CCCNC(=N)N)C(=O)N[C@@H](CC(=O)O)C(=O)N[C@@H](Cc1ccc(O)cc1)C(=O)N[C@@H](CC(=O)O)C(=O)N[C@@H](CO)C(=O)N[C@@H](CO)C(=O)N[C@@H](CO)C(=O)NCC(=O)N[C@@H](CO)C(N)=O)C(C)C` [Ser17,19Asp] (Biotin-YSSYSAPVSSSLSVRRDYDSSSGS-NH2), for which, in assay [1], the “Effect on MT network of T98G / glioma cells (in words)” value was “not altered” and the “Disintegration of MT (% of cells)” value is 18.6±6.8 % of cells. In assay [2], the “Cell penetration / internalization in T98G cells (in words)” value (“Cell penetration / internalization” below) is on record as “decreased internalization” and the “Peptide incorporation (% of cells)” value is 29.0±12.7 % of cells.

Consider `CC(C)C[C@H](NC(=O)[C@H](CO)NC(=O)[C@H](CO)NC(=O)[C@H](CO)NC(=O)[C@@H](NC(=O)[C@@H]1CCCN1C(=O)[C@H](C)NC(=O)[C@H](C)NC(=O)[C@H](Cc1ccc(O)cc1)NC(=O)[C@H](CO)NC(=O)[C@H](CO)NC(=O)[C@H](Cc1ccc(O)cc1)NC(=O)CCCC[C@@H]1SC[C@@H]2NC(=O)N[C@@H]21)C(C)C)C(=O)N[C@@H](CO)C(=O)N[C@H](C(=O)N[C@@H](CCCNC(=N)N)C(=O)N[C@@H](CCCNC(=N)N)C(=O)N[C@@H](CO)C(=O)N[C@@H](Cc1ccc(O)cc1)C(=O)N[C@@H](CO)C(=O)N[C@@H](CO)C(=O)N[C@@H](CO)C(=O)N[C@@H](CO)C(=O)NCC(=O)N[C@@H](CO)C(N)=O)C(C)C` [Ser5Ala] (Biotin-YSSYAAPVSSSLSVRRSYSSSSGS-NH2), for which the “Disintegration of MT (% of cells)” value in assay [1] is on record as 23.6±1.6 % of cells. Also, the “Peptide incorporation (% of cells)” value in assay [2] is recorded as 16.0±1.4 % of cells.

Take `CC(C)C[C@H](NC(=O)[C@H](CO)NC(=O)[C@H](CO)NC(=O)[C@H](CO)NC(=O)[C@@H](NC(=O)[C@@H]1CCCN1C(=O)[C@H](C)NC(=O)[C@H](CO)NC(=O)[C@H](Cc1ccc(O)cc1)NC(=O)[C@H](CO)NC(=O)[C@H](CO)NC(=O)[C@H](Cc1ccc(O)cc1)NC(=O)CCCC[C@@H]1SC[C@@H]2NC(=O)N[C@@H]21)C(C)C)C(=O)N[C@@H](CO)C(=O)N[C@@H](C)C(=O)N[C@@H](CCCNC(=N)N)C(=O)N[C@@H](CCCNC(=N)N)C(=O)N[C@@H](CO)C(=O)N[C@@H](Cc1ccc(O)cc1)C(=O)N[C@@H](CO)C(=O)N[C@@H](CO)C(=O)N[C@@H](CO)C(=O)N[C@@H](CO)C(=O)NCC(=O)N[C@@H](CO)C(N)=O` [Val14Ala] (Biotin-YSSYSAPVSSSLSARRSYSSSSGS-NH2): in assay [1], the “Effect on MT network of T98G / glioma cells (in words)” value is on record as “does not affect the MT network” and the “Disintegration of MT (% of cells)” value is 13.8±3.9 % of cells. Further, in assay [2], the “Cell penetration / internalization” value is “fails to enter in cells” and the “Peptide incorporation (% of cells)” value is on record as 0 % of cells.

Regarding `CC(C)C[C@H](NC(=O)[C@H](CO)NC(=O)[C@H](CO)NC(=O)[C@H](CO)NC(=O)[C@@H](NC(=O)[C@@H]1CCCN1C(=O)[C@H](C)NC(=O)[C@H](CO)NC(=O)[C@H](Cc1ccc(O)cc1)NC(=O)[C@H](CO)NC(=O)[C@H](CO)NC(=O)[C@H](Cc1ccc(O)cc1)NC(=O)CCCC[C@@H]1SC[C@@H]2NC(=O)N[C@@H]21)C(C)C)C(=O)N[C@@H](CO)C(=O)N[C@H](C(=O)N[C@@H](CCCNC(=N)N)C(=O)N[C@@H](CCCNC(=N)N)C(=O)N[C@@H](CO)C(=O)N[C@@H](Cc1ccc(O)cc1)C(=O)N[C@@H](CO)C(=O)N[C@@H](CO)C(=O)N[C@@H](C)C(=O)N[C@@H](CO)C(=O)NCC(=O)N[C@@H](CO)C(N)=O)C(C)C` [Ser21Ala] (Biotin-YSSYSAPVSSSLSVRRSYSSASGS-NH2), in assay [1], the “Disintegration of MT (% of cells)” value was 31.6±5.1 % of cells. In addition, in assay [2], the “Peptide incorporation (% of cells)” value is reported as 55.4±5.9 % of cells.

As for `CC(C)C[C@H](NC(=O)[C@H](CO)NC(=O)[C@H](CO)NC(=O)[C@H](CO)NC(=O)[C@@H](NC(=O)[C@@H]1CCCN1C(=O)[C@H](C)NC(=O)[C@H](CO)NC(=O)[C@H](Cc1ccc(O)cc1)NC(=O)[C@H](CO)NC(=O)[C@H](CO)NC(=O)[C@H](Cc1ccc(O)cc1)NC(=O)CCCC[C@@H]1SC[C@@H]2NC(=O)N[C@@H]21)C(C)C)C(=O)N[C@@H](CO)C(=O)N[C@H](C(=O)N[C@@H](CCCNC(=N)N)C(=O)N[C@@H](CCCNC(=N)N)C(=O)N[C@@H](CO)C(=O)N[C@@H](C)C(=O)N[C@@H](CO)C(=O)N[C@@H](CO)C(=O)N[C@@H](CO)C(=O)N[C@@H](CO)C(=O)NCC(=O)N[C@@H](CO)C(N)=O)C(C)C` [Tyr18Ala] (Biotin-YSSYSAPVSSSLSVRRSASSSSGS-NH2), the “Disintegration of MT (% of cells)” value in assay [1] is listed as 16.0±2.8 % of cells. The “Peptide incorporation (% of cells)” value in assay [2] was 7.9±0.9 % of cells.

For `CC(C)C[C@H](NC(=O)[C@H](CO)NC(=O)[C@H](CO)NC(=O)[C@H](CO)NC(=O)[C@@H](NC(=O)[C@@H]1CCCN1C(=O)[C@H](C)NC(=O)[C@H](CO)NC(=O)[C@H](Cc1ccc(O)cc1)NC(=O)[C@H](CO)NC(=O)[C@H](CO)NC(=O)[C@H](Cc1ccc(O)cc1)NC(=O)CCCC[C@@H]1SC[C@@H]2NC(=O)N[C@@H]21)C(C)C)C(=O)N[C@@H](CO)C(=O)N[C@H](C(=O)N[C@@H](CCCNC(=N)N)C(=O)N[C@@H](CCCNC(=N)N)C(=O)N[C@@H](CO)C(=O)N[C@@H](Cc1ccc(O)cc1)C(=O)N[C@@H](CO)C(=O)N[C@@H](CO)C(=O)N[C@@H](CO)C(=O)N[C@@H](CO)C(=O)N[C@@H](C)C(=O)N[C@@H](CO)C(N)=O)C(C)C` [Gly23Ala] (Biotin-YSSYSAPVSSSLSVRRSYSSSSAS-NH2), in assay [1], the “Disintegration of MT (% of cells)” value is given as 16.9±4.5 % of cells. In assay [2], the “Cell penetration / internalization” value was “only weak cell-penetrating activity” and the “Peptide incorporation (% of cells)” value is 6.2±6.2 % of cells.

Take `CC(C)C[C@H](NC(=O)[C@H](CO)NC(=O)[C@H](CO)NC(=O)[C@H](C)NC(=O)[C@@H](NC(=O)[C@@H]1CCCN1C(=O)[C@H](C)NC(=O)[C@H](CO)NC(=O)[C@H](Cc1ccc(O)cc1)NC(=O)[C@H](CO)NC(=O)[C@H](CO)NC(=O)[C@H](Cc1ccc(O)cc1)NC(=O)CCCC[C@@H]1SC[C@@H]2NC(=O)N[C@@H]21)C(C)C)C(=O)N[C@@H](CO)C(=O)N[C@H](C(=O)N[C@@H](CCCNC(=N)N)C(=O)N[C@@H](CCCNC(=N)N)C(=O)N[C@@H](CO)C(=O)N[C@@H](Cc1ccc(O)cc1)C(=O)N[C@@H](CO)C(=O)N[C@@H](CO)C(=O)N[C@@H](CO)C(=O)N[C@@H](CO)C(=O)NCC(=O)N[C@@H](CO)C(N)=O)C(C)C` [Ser9Ala] (Biotin-YSSYSAPVASSLSVRRSYSSSSGS-NH2): in assay [1], the “Disintegration of MT (% of cells)” value was 27.1±4.8 % of cells. Also, in assay [2], the “Cell penetration / internalization” value was “penetrated in cells significantly although to a much lesser extent than the wt peptide” and the “Peptide incorporation (% of cells)” value is reported as 23.3±8.4 % of cells.
